Measured values taken from patent US10273231B2, “Azoline compounds substituted by a condensed ring system” (BASF SE, priority 2014, dated 2019).

How the values were obtained:
Assay type in all cases: in vivo
[1] = system: Green Soldier Stink Bug (Nezara viridula); test: B.11 Green soldier stink bug test on soybean pods in Petri dishes; settings: 120 h, late 3rd instar, recorded after 5 days, read-out: mortality in comparison with untreated controls
Experimental: B.11 Green Soldier Stink Bug (Nezara viridula)
(§1) The active compound was dissolved at the desired concentration in a mixture of 1:1 (vol:vol) distilled water:acetone. Surfactant (Kinetic HV) was added at a rate of 0.01% (vol/vol).The test solution was prepared at the day of use.
Soybean pods were placed in glass Petri dishes lined with moist filter paper and inoculated with ten late 3rd instar N. viridula. Using a hand atomizer, approximately 2 ml solution is sprayed into each Petri dish. Assay arenas were kept at about 25° C. Percent mortality was recorded after 5 days.

[2] = system: Brown Marmorated Stink Bug (Halyomorpha halys); test: B.13 Brown marmorated stink bug test on peanuts and soybean seeds in plastic cups; settings: 120 h, adult stage, recorded after 5 days, read-out: mortality in comparison with untreated controls
Experimental: B.13 Brown Marmorated Stink Bug (Halyomorpha halys)
as §1
Row peanuts and soybean seeds were placed into microwavable plastic cups and inoculated with five adult stage H. halys. Using a hand atomizer, approximately 1 ml solution is sprayed into each cup, insects and food present. A water source was provided (cotton wick with water). Each treatment is replicated 4-fold. Assay arenas are kept at about 25° C. Percent mortality was recorded after 5 days.

[3] = system: Red Spider Mite (Tetranychus kanzawai); test: B.9 Red spider mite test on sprayed cowpea beans; settings: assessed 72 hours after treatment, read-out: mortality in comparison with untreated controls
Experimental: B.9 Red Spider Mite (Tetranychus kanzawai)
The active compound was dissolved at the desired concentration in a mixture of 1:1 (vol:vol) distilled water:acetone. Add surfactant (Kinetic HV) was added at a rate of 0.01% (vol/vol).The test solution was prepared at the day of use.
Potted cowpea beans of 4-5 days of age were cleaned with tap water and sprayed with 1-2 ml of the test solution using air driven hand atomizer. The treated plants were allowed to air dry and afterwards inoculated with 30 or more mites by clipping a cassava leaf section from rearing population. Treated plants were placed inside a holding room at about 25-27° C. and about 50-60% relative humidity. Percent mortality was assessed 72 hours after treatment.

[4] = system: Orchid Thrips (Dichromothrips Corbetti); test: B.7 Orchid thrips floral-immersion test; settings: adult thrips, recorded 72 hours after treatment, read-out: mortality in comparison with untreated controls
Experimental: B.7 Orchid Thrips (Dichromothrips Corbetti) Dichromothrips corbettiadults used for bioassay were obtained from a colony maintained continuously under laboratory conditions. For testing purposes, the test compound is diluted in a 1:1 mixture of acetone:water (vol:vol), plus Kinetic HV at a rate of 0.01% v/v.
Thrips potency of each compound was evaluated by using a floral-immersion technique. All petals of individual, intact orchid flowers were dipped into treatment solution and allowed to dry in Petri dishes. Treated petals were placed into individual re-sealable plastic along with about 20 adult thrips. All test arenas were held under continuous light and a temperature of about 28° C. for duration of the assay. After 3 days, the numbers of live thrips were counted on each petal. The percent mortality was recorded 72 hours after treatment.

[5] = system: Neotropical Brown Stink Bug (Euschistus heros); test: B.12 Neotropical brown stink bug test on soybean pods in plastic cups; settings: 120 h, adult stage, recorded after 5 days, read-out: mortality in comparison with untreated controls
Experimental: B.12 Neotropical Brown Stink Bug (Euschistus heros)
as §1
Soybean pods were placed in microwavable plastic cups and inoculated with ten adult stage E. heros. Using a hand atomizer, approximately 1 ml solution is sprayed into each cup, insects and food present. A water source was provided (cotton wick with water). Each treatment was replicated 2-fold. Assay arenas were kept at about 25° C. Percent mortality was recorded after 5 days.

[6] = system: Green Peach Aphid (Myzus persicae); test: B.2 Green peach aphid systemic test, artificial diet under membrane in microtiter plates; settings: 72 h, adult aphids, assessed after 3 days, read-out: mortality in comparison with untreated controls
Description: B.2 Green Peach Aphid (Myzus persicae)
For evaluating control of green peach aphid (Myzus persicae) through systemic means the test unit consisted of 96-well-microtiter plates containing liquid artificial diet under an artificial membrane.
The compounds were formulated using a solution containing 75% v/v water and 25% v/v DMSO. Different concentrations of formulated compounds were pipetted into the aphid diet, using a custom built pipetter, at two replications.
After application, 5-8 adult aphids were placed on the artificial membrane inside the microtiter plate wells. The aphids were then allowed to suck on the treated aphid diet and incubated at about 23±1° C. and about 50±5% relative humidity for 3 days. Aphid mortality and fecundity was then visually assessed.

[7] = system: Rice Green Leafhopper (Nephotettix virescens); test: B.8 Rice green leafhopper test on sprayed rice seedlings; settings: adults, recorded after 72 hours, read-out: mortality in comparison with untreated controls
Experimental: B.8 Rice Green Leafhopper (Nephotettix virescens)
Rice seedlings were cleaned and washed 24 hours before spraying. The active compounds were formulated in 1:1 acetone:water (vol:vol), and 0.01% vol/vol surfactant (Kinetic HV) was added. Potted rice seedlings were sprayed with 5-6 ml test solution, air dried, covered with Mylar cages cages and inoculated with 10 adults. Treated rice plants were kept at about 28-29° C. and relative humidity of about 50-60%. Percent mortality was recorded after 72 hours.

[8] = system: Vetch Aphid (Megoura viciae); test: B.3 Vetch aphid test on broad bean leaf disks; settings: foliar, 120 h, adult aphids, assessed after 5 days, read-out: mortality in comparison with untreated controls
Experimental: B.3 Vetch Aphid (Megoura viciae)
For evaluating control of vetch aphid (Megoura viciae) through contact or systemic means the test unit consisted of 24-well-microtiter plates containing broad bean leaf disks.
The compounds were formulated using a solution containing 75% v/v water and 25% v/v DMSO. Different concentrations of formulated compounds were sprayed onto the leaf disks at 2.5 μl, using a custom built micro atomizer, at two replications.
After application, the leaf disks were air-dried and 5-8 adult aphids placed on the leaf disks inside the microtiter plate wells. The aphids were then allowed to suck on the treated leaf disks and incubated at about 23±10C and about 50±5% relative humidity for 5 days. Aphid mortality and fecundity was then visually assessed.

[9] = system: Mediterranean Fruitfly (Ceratitis capitata); test: B.6 Mediterranean fruitfly test, insect diet with eggs in microtiter plates; settings: 120 h, egg and larval mortality after 5 days, read-out: mortality in comparison with untreated controls
Experimental: B.6 Mediterranean Fruitfly (Ceratitis capitata)
For evaluating control of Mediterranean fruitfly (Ceratitis capitata) the test unit consisted of microtiter plates containing an insect diet and 50-80 C. capitata eggs. The compounds were formulated using a solution containing 75% v/v water and 25% v/v DMSO. Different concentrations of formulated compounds were sprayed onto the insect diet at 5 μl, using a custom built micro atomizer, at two replications.
After application, microtiter plates were incubated at about 28±1° C. and about 80+5% relative humidity for 5 days. Egg and larval mortality was then visually assessed.

[10] = system: Boll Weevil (Anthonomus grandis); test: B.5 Boll weevil test, insect diet with eggs in microtiter plates; settings: 120 h, egg and larval mortality after 5 days, read-out: mortality in comparison with untreated controls
Experimental: B.5 Boll Weevil (Anthonomus grandis)
For evaluating control of boll weevil (Anthonomus grandis) the test unit consisted of 96-well-microtiter plates containing an insect diet and 5-10 A. grandis eggs.
The compounds were formulated using a solution containing 75% v/v water and 25% v/v DMSO. Different concentrations of formulated compounds were sprayed onto the insect diet at 5 μl, using a custom built micro atomizer, at two replications.
After application, microtiter plates were incubated at about 25±1° C. and about 75±5% relative humidity for 5 days. Egg and larval mortality was then visually assessed.

[11] = system: Diamond Back Moth (Plutella xylostella); test: B.1 Diamond back moth leaf-dip test on cabbage leaves; settings: 3rd instar larvae, recorded 72 hours after treatment, read-out: mortality in comparison with untreated controls
Experimental: B.1 Diamond Back Moth (Plutella xylostella)
The active compound was dissolved at the desired concentration in a mixture of 1:1 (vol:vol) distilled water:aceteone. Surfactant (Kinetic HV) was added at a rate of 0.01% (vol/vol).The test solution was prepared at the day of use.
Leaves of cabbage were dipped in test solution and air-dried. Treated leaves were placed in petri dishes lined with moist filter paper and inoculated with ten 3rd instar larvae. Mortality was recorded 72 hours after treatment. Feeding damages were also recorded using a scale of 0-100%.

[12] = system: Southern Armyworm (Spodoptera eridania); test: B.10 Southern armyworm test on sprayed lima bean plants; settings: 96 h, larvae, assessed 4 days after treatment, read-out: mortality in comparison with untreated controls
Experimental: B.10 Southern Armyworm (Spodoptera eridania)
The active compounds were formulated in cyclohexanone as a 10,000 ppm solution supplied in tubes. The tubes were inserted into an automated electrostatic sprayer equipped with an atomizing nozzle and they served as stock solutions for which lower dilutions were made in 50% acetone:50% water (v/v). A nonionic surfactant (Kinetic®) was included in the solution at a volume of 0.01% (v/v).
Lima bean plants (variety Sieva) were grown 2 plants to a pot and selected for treatment at the 1st true leaf stage. Test solutions were sprayed onto the foliage by an automated electrostatic plant sprayer equipped with an atomizing spray nozzle. The plants were dried in the sprayer fume hood and then removed from the sprayer. Each pot was placed into perforated plastic bags with a zip closure. About 10 to 11 armyworm larvae were placed into the bag and the bags zipped closed. Test plants were maintained in a growth room at about 250C and about 20-40% relative humidity for 4 days, avoiding direct exposure to fluorescent light (24 hour photoperiod) to prevent trapping of heat inside the bags. Mortality and reduced feeding were assessed 4 days after treatment, compared to untreated control plants.

[13] = system: Tobacco Budworm (Heliothis virescens); test: B.4 Tobacco budworm test, insect diet with eggs in microtiter plates; settings: 120 h, egg and larval mortality after 5 days, read-out: mortality in comparison with untreated controls
Experimental: B.4 Tobacco Budworm (Heliothis virescens)
For evaluating control of tobacco budworm (Heliothis virescens) the test unit consisted of 96-well-microtiter plates containing an insect diet and 15-25 H. virescens eggs.
The compounds were formulated using a solution containing 75% v/v water and 25% v/v DMSO. Different concentrations of formulated compounds were sprayed onto the insect diet at 10 μl, using a custom built micro atomizer, at two replications.
After application, microtiter plates were incubated at about 28±10C and about 80±5% relative humidity for 5 days. Egg and larval mortality was then visually assessed.

O=C(NC1CS(=O)(=O)C1)c1ccc(C2=NOC(c3cc(Cl)c(F)c(Cl)c3)(C(F)(F)F)C2)c2c1SCC2 (centres unmarked) [Compound I-7, 4-[5-(3,5-dichloro-4-fluoro-phenyl)-5-(trifluoromethyl)-4H-isoxazol-3-yl]-N-(1,1-dioxothietan-3-yl)-2,3-dihydrobenzothiophene-7-carboxamide]
≥ 75%: mortality at 300 ppm [1] | mortality at 100 ppm [2] | mortality at 300 ppm [3] | mortality at 300 ppm [4] | mortality at 100 ppm [5] | mortality at 2500 ppm [6] | mortality at 300 ppm [7] | mortality at 2500 ppm [8] | mortality at 2500 ppm [9] | mortality at 2500 ppm [10] | mortality at 300 ppm [11] | mortality at 10 ppm [12] | mortality at 2500 ppm [13]

CCCC(=O)NCc1ccc(C2=NOC(c3cc(Cl)c(F)c(Cl)c3)(C(F)(F)F)C2)c2c1OCC2 (centres unmarked) [Compound I-16, N-[[4-[5-(3,5-dichloro-4-fluoro-phenyl)-5-(trifluoromethyl)-4H-isoxazol-3-yl]-2,3-dihydrobenzofuran-7-yl]methyl]butanamide]
≥ 75%: mortality at 300 ppm [1] | mortality at 300 ppm [3] | mortality at 300 ppm [4] | mortality at 2500 ppm [6] | mortality at 300 ppm [7] | mortality at 2500 ppm [8] | mortality at 2500 ppm [9] | mortality at 2500 ppm [10] | mortality at 300 ppm [11] | mortality at 2500 ppm [13]
